Source: PubChem BioAssay (NCI)
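96-well plates; 48 h exposure; 5 concentrations. Endpoints by linear interpolation between flanking doses. Not reached: highest tested concentration assigned. Here, GI50 denotes the concentration required for 50% inhibition of growth. At the TGI there is no net growth.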

Tests used:
Assay in all cases: NCI anticancer screen, dose series, 48 h
786-0 renal = tested on: 786-0 renal
A498 renal = tested on: A498 renal
A549 NSCLC = tested on: A549 NSCLC
ACHN renal = tested on: ACHN renal
BT-549 breast = tested on: BT-549 breast
CAKI-1 renal = tested on: CAKI-1 renal
CCRF-CEM leukemia = tested on: CCRF-CEM leukemia
COLO 205 colon = tested on: COLO 205 colon
DU-145 prostate = tested on: DU-145 prostate
EKVX NSCLC = tested on: EKVX NSCLC
HCC-2998 colon = tested on: HCC-2998 colon
HCT-116 colon = tested on: HCT-116 colon
HCT-15 colon = tested on: HCT-15 colon
HL-60(TB) leukemia = tested on: HL-60(TB) leukemia
HOP-62 NSCLC = tested on: HOP-62 NSCLC
HOP-92 NSCLC = tested on: HOP-92 NSCLC
HS 578T breast = tested on: HS 578T breast
HT29 colon = tested on: HT29 colon
IGROV1 ovarian = tested on: IGROV1 ovarian
K-562 leukemia = tested on: K-562 leukemia
KM12 colon = tested on: KM12 colon
LOX IMVI melanoma = tested on: LOX IMVI melanoma
M14 melanoma = tested on: M14 melanoma
MALME-3M melanoma = tested on: MALME-3M melanoma
MCF7 breast = tested on: MCF7 breast
MDA-MB-231 breast = tested on: MDA-MB-231 breast
MDA-MB-435 = tested on: MDA-MB-435
MOLT-4 leukemia = tested on: MOLT-4 leukemia
NCI-H226 lung = tested on: NCI-H226 lung

SMILES: COc1cc2c(cc1O)N=C[C@@H]1C[C@@H](F)CN1C2=O
- GI50 (786-0 renal): 2.05 µM
- TGI (786-0 renal): 12.3 µM
- GI50 (A498 renal): 0.938 µM
- TGI (A498 renal): 2.89 µM
- GI50 (A549 NSCLC): 7.97 µM
- TGI (A549 NSCLC): > 19.7 µM
- GI50 (ACHN renal): 2.58 µM
- TGI (ACHN renal): 6.15 µM
- GI50 (BT-549 breast): 0.869 µM
- TGI (BT-549 breast): 5.83 µM
- GI50 (CAKI-1 renal): 0.281 µM
- TGI (CAKI-1 renal): 1.5 µM
- GI50 (CCRF-CEM leukemia): 0.304 µM
- TGI (CCRF-CEM leukemia): 3.3 µM
- GI50 (COLO 205 colon): 3.18 µM
- TGI (COLO 205 colon): 11.5 µM
- GI50 (DU-145 prostate): 0.964 µM
- TGI (DU-145 prostate): 8.86 µM
- GI50 (EKVX NSCLC): 2.85 µM
- TGI (EKVX NSCLC): 9.8 µM
- GI50 (HCC-2998 colon): 1.98 µM
- TGI (HCC-2998 colon): 5.66 µM
- GI50 (HCT-116 colon): 1.83 µM
- TGI (HCT-116 colon): 5.94 µM
- GI50 (HCT-15 colon): 2.89 µM
- TGI (HCT-15 colon): 9.33 µM
- GI50 (HL-60(TB) leukemia): 0.588 µM
- TGI (HL-60(TB) leukemia): 10.1 µM
- GI50 (HOP-62 NSCLC): 2.55 µM
- TGI (HOP-62 NSCLC): 9.65 µM
- GI50 (HOP-92 NSCLC): 0.269 µM
- TGI (HOP-92 NSCLC): 0.719 µM
- GI50 (HS 578T breast): 0.0964 µM
- TGI (HS 578T breast): 2.13 µM
- GI50 (HT29 colon): 4.1 µM
- TGI (HT29 colon): > 44 µM
- GI50 (IGROV1 ovarian): 1.65 µM
- TGI (IGROV1 ovarian): 8.97 µM
- GI50 (K-562 leukemia): 0.367 µM
- TGI (K-562 leukemia): 4.81 µM
- GI50 (KM12 colon): 1.81 µM
- TGI (KM12 colon): 5.04 µM
- GI50 (LOX IMVI melanoma): 2.03 µM
- TGI (LOX IMVI melanoma): 7.21 µM
- GI50 (M14 melanoma): 1.61 µM
- TGI (M14 melanoma): 3.73 µM
- GI50 (MALME-3M melanoma): 0.789 µM
- TGI (MALME-3M melanoma): 2.88 µM
- GI50 (MCF7 breast): 0.608 µM
- TGI (MCF7 breast): 9.06 µM
- GI50 (MDA-MB-231 breast): 1.84 µM
- TGI (MDA-MB-231 breast): 6.21 µM
- GI50 (MDA-MB-435): 1.55 µM
- TGI (MDA-MB-435): 3.51 µM
- GI50 (MOLT-4 leukemia): 0.283 µM
- TGI (MOLT-4 leukemia): 1.23 µM
- GI50 (NCI-H226 lung): 2.37 µM
